Data on 2 compounds can be found in PMC3810962 (Cancer research, 2012).

The target of experiment [1] is T1, STK10 (Homo sapiens, UniProt O94804). In words: ProfilerPro kinase panel, % inhibition at […]. To be noted: 0.2 µM. Type of experiment: biochemical.
The target of experiment [2] is T2, ROCK2 (Homo sapiens, UniProt O75116). In words: ProfilerPro kinase panel, % inhibition at […]. The format is biochemical. To be noted: 0.2 µM.
Experiment [3] concerns the target T3, PKCtheta (Homo sapiens, UniProt Q04759). In words: biochemical. To be noted: read-out: % inhibition.
A further experiment deals with T4, IKKbeta (Homo sapiens, UniProt O14920).
T4 sequence (O14920 1-756): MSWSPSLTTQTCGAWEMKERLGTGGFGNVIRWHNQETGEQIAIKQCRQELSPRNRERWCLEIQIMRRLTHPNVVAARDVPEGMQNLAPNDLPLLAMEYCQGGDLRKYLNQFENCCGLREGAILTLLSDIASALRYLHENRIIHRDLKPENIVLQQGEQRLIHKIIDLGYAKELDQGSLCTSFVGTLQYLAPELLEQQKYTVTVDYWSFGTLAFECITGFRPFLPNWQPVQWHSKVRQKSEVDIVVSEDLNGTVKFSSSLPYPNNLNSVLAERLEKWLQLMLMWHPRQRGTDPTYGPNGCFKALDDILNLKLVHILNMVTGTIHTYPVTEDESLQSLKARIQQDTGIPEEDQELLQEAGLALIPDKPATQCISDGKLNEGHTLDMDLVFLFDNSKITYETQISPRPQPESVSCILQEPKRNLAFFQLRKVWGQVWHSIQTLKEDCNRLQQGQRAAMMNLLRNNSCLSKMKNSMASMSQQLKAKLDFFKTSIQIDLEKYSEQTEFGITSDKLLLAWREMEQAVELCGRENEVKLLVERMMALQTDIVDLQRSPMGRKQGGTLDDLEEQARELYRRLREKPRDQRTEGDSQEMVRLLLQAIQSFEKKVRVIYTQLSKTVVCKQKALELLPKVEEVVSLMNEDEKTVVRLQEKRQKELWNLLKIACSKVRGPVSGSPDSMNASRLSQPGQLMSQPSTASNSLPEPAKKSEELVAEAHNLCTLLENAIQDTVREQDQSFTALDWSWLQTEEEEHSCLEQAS
In words: biochemical. To be noted: read-out: % inhibition.

The target of a further experiment is T5, PKCepsilon (Homo sapiens, UniProt Q02156).
T5 sequence (Q02156 1-737): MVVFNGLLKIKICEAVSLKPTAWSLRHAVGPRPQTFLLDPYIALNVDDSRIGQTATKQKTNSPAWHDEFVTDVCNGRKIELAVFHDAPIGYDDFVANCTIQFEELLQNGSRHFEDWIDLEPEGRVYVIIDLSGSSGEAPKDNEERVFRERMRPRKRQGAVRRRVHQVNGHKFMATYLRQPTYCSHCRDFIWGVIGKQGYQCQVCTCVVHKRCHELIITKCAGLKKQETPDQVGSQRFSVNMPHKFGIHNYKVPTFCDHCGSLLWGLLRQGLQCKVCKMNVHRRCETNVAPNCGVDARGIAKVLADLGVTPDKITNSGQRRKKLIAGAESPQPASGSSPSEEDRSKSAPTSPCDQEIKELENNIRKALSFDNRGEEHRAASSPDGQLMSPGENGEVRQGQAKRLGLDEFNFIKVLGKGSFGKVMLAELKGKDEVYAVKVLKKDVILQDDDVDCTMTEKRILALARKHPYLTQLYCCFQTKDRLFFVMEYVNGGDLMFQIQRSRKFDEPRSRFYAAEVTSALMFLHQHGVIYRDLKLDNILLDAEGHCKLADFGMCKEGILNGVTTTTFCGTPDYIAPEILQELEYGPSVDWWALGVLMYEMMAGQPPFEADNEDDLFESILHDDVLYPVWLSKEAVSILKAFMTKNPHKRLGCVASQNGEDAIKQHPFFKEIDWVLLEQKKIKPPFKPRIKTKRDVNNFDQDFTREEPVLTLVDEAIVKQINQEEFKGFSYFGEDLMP
The experiment can be described thus: biochemical. To be noted: read-out: % inhibition.

A further experiment addresses MNK1 (Homo sapiens, UniProt Q9BUB5). In words: biochemical. To be noted: read-out: % inhibition.
Experiment [4] addresses T6, ROCK1 (Homo sapiens, UniProt Q13464). In words: biochemical. To be noted: read-out: % inhibition.
In a further experiment the target is PKCbeta1 (Homo sapiens, UniProt P05771). The experiment can be described thus: biochemical. The note with it: read-out: % inhibition.
Chain of PKCbeta1 (P05771 whole entry): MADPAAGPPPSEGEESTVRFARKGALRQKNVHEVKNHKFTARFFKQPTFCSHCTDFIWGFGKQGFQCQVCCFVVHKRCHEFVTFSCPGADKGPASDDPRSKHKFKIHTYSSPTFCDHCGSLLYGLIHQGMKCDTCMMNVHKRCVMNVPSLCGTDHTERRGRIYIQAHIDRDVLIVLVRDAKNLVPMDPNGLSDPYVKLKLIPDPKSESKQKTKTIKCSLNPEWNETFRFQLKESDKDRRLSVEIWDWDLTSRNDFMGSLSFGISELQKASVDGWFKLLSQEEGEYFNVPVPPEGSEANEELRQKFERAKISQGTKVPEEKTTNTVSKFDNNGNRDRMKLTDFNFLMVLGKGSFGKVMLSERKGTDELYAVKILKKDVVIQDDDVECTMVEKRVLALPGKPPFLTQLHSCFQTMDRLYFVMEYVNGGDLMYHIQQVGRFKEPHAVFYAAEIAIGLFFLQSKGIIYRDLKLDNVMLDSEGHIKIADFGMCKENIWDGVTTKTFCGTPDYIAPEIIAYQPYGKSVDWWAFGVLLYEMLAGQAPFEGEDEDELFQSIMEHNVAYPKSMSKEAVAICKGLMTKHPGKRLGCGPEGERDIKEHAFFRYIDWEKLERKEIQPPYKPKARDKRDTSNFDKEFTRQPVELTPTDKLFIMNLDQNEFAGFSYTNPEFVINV
In a further experiment the target is RSK1 (Homo sapiens, UniProt Q15418). The experiment can be described thus: biochemical. To be noted: read-out: % inhibition.
Chain of RSK1 (Q15418 whole entry): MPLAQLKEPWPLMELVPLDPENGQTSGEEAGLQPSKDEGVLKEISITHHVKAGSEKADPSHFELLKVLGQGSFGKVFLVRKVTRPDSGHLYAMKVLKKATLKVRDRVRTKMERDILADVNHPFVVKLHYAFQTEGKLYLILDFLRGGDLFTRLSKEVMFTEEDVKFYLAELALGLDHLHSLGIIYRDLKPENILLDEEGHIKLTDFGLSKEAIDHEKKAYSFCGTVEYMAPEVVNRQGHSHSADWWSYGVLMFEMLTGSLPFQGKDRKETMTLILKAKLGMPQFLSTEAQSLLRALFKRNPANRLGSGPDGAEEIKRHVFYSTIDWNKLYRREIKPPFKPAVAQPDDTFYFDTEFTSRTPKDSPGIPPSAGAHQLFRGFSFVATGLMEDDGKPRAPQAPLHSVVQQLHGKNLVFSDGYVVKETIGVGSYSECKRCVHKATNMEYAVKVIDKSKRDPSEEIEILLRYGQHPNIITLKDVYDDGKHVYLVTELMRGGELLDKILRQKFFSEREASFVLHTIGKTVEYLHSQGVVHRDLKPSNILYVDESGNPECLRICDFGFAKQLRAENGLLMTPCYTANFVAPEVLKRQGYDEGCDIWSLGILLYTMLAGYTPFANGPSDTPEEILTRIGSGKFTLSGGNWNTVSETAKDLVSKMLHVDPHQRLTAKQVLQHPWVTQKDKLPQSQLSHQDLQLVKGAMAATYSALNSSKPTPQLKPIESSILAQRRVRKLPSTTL
A further experiment has as its target PKCdelta (Homo sapiens, UniProt Q05655). The experiment can be described thus: biochemical. To be noted: read-out: % inhibition.
A further experiment deals with RSK3 (Homo sapiens, UniProt Q15349). In words: biochemical. To be noted: read-out: % inhibition.
Chain of RSK3 (Q15349 whole entry): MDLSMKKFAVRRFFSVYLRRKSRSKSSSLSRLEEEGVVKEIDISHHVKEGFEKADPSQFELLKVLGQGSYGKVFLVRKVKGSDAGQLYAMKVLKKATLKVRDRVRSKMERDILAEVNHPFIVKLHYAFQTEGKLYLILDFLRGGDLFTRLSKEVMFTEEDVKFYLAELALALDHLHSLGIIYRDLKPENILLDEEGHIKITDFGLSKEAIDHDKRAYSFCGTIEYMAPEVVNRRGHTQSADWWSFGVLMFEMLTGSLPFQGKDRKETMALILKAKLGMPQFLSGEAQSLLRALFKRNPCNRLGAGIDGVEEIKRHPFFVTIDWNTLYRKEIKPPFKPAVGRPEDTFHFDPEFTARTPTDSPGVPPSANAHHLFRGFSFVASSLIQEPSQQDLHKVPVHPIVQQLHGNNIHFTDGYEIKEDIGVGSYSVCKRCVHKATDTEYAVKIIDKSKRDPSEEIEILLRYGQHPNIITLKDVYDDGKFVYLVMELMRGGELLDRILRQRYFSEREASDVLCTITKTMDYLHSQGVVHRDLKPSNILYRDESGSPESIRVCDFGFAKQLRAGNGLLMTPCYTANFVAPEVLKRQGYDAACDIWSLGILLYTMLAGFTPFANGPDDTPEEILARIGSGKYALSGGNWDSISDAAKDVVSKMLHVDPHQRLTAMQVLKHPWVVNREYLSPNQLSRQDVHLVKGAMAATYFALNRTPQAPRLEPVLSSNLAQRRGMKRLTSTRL
Experiment [5] concerns the target T2, ROCK2. In words: biochemical. The note with it: read-out: % inhibition.
The next experiment has as its target PKA (Homo sapiens, UniProt P17612). In words: biochemical. The note with it: read-out: % inhibition.
The target in the next experiment is T7, MST1 (Homo sapiens, UniProt Q13043).
T7 sequence (Q13043 1-487): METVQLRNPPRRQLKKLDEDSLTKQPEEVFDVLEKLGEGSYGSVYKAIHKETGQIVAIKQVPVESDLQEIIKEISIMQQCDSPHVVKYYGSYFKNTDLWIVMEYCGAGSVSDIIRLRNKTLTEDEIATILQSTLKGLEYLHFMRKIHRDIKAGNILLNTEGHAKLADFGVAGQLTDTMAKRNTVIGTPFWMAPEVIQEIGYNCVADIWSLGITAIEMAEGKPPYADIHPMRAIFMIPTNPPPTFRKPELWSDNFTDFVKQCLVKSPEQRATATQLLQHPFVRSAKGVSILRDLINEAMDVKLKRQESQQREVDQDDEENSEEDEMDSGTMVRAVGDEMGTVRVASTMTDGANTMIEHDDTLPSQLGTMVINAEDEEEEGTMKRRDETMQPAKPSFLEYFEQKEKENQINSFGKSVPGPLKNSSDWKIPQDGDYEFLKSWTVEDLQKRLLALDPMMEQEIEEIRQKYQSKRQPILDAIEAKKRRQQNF
In words: biochemical. To be noted: read-out: % inhibition.

Experiment [6] addresses T1, STK10. The experiment can be described thus: biochemical. The note with it: read-out: % inhibition.
In another experiment the target is RSK2 (Homo sapiens, UniProt P51812). In words: biochemical. To be noted: read-out: % inhibition.
A further experiment concerns the target T8, PRKX (Homo sapiens, UniProt P51817).
T8 sequence (P51817 1-358): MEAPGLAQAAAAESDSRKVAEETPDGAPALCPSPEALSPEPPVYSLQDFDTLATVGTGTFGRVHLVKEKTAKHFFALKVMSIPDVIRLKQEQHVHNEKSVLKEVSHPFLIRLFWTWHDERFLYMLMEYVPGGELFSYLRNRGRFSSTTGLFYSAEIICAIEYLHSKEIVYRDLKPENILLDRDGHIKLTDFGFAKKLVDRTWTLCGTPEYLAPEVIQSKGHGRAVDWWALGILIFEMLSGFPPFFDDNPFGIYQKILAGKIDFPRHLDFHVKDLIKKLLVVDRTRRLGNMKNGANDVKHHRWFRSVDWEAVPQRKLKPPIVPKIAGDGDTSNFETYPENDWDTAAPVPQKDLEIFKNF
In words: biochemical. The note with it: read-out: % inhibition.

A further experiment concerns the target T9, PKG (Homo sapiens, UniProt Q13976).
T9 sequence (Q13976 1-671): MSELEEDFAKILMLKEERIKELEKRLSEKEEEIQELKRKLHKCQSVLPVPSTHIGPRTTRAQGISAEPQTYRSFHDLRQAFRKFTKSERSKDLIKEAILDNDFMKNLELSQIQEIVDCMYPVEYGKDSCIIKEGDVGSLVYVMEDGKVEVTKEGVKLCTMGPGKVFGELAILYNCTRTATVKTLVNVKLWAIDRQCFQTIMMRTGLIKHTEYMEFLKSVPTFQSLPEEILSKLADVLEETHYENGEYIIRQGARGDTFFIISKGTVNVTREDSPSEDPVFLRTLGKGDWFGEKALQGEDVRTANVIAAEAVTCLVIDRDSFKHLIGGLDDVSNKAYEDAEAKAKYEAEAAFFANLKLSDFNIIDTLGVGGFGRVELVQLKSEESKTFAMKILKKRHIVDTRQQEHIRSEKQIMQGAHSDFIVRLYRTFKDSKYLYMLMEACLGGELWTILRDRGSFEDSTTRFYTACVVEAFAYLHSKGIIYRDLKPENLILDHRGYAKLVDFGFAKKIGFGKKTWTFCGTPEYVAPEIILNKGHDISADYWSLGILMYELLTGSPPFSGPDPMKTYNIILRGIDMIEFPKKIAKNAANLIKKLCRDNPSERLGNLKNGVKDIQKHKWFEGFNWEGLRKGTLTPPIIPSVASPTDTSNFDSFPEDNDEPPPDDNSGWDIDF
In words: biochemical. The note with it: read-out: % inhibition.

The target of another experiment is T10, ARK5 (Homo sapiens, UniProt O60285).
T10 sequence (O60285 1-661): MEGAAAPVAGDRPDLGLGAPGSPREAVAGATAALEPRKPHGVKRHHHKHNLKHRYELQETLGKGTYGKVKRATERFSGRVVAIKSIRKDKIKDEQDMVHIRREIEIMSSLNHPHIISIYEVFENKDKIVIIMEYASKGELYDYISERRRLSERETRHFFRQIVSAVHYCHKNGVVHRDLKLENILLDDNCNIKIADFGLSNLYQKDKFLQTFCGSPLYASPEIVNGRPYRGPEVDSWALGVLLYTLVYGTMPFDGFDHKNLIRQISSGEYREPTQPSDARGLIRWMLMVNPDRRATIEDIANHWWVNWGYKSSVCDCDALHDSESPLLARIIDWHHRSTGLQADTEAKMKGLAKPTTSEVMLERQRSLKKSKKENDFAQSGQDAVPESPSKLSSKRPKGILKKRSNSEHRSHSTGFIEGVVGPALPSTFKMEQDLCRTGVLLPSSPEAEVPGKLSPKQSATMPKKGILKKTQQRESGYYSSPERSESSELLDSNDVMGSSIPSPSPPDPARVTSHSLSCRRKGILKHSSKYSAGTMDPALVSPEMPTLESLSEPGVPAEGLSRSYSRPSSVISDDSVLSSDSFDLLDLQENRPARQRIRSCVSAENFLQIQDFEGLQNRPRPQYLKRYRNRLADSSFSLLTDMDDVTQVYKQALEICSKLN
In words: biochemical. To be noted: read-out: % inhibition.

The target in another experiment is T11, PKG1b (Homo sapiens, UniProt Q13976).
T11 sequence (Q13976 1-671): T9 sequence (Q13976 1-671)
The experiment can be described thus: biochemical. The note with it: read-out: % inhibition.

Experiment [7] concerns the target T6, ROCK1. In words: ProfilerPro kinase panel, % inhibition at […]. Type of experiment: biochemical. The note with it: 0.2 µM.
For experiment [8], the target named is T3, PKCtheta. In words: ProfilerPro kinase panel, % inhibition at […]. The note with it: read-out: Compound / Y27632. Type of experiment: biochemical.
Experiment [9] deals with T1, STK10. The experiment can be described thus: ProfilerPro kinase panel, % inhibition at […]. Type of experiment: biochemical. The note with it: read-out: Compound / Y27632.
The target of experiment [10] is T6, ROCK1. The experiment can be described thus: biochemical. To be noted: read-out: Compound / OXA-06.
In experiment [11] the target is T2, ROCK2. The experiment can be described thus: ProfilerPro kinase panel, % inhibition at […]. The format is biochemical. The note with it: read-out: Compound / OXA-06.

The structures appear in SMILES notation.

T2 sequence (O75116 whole entry): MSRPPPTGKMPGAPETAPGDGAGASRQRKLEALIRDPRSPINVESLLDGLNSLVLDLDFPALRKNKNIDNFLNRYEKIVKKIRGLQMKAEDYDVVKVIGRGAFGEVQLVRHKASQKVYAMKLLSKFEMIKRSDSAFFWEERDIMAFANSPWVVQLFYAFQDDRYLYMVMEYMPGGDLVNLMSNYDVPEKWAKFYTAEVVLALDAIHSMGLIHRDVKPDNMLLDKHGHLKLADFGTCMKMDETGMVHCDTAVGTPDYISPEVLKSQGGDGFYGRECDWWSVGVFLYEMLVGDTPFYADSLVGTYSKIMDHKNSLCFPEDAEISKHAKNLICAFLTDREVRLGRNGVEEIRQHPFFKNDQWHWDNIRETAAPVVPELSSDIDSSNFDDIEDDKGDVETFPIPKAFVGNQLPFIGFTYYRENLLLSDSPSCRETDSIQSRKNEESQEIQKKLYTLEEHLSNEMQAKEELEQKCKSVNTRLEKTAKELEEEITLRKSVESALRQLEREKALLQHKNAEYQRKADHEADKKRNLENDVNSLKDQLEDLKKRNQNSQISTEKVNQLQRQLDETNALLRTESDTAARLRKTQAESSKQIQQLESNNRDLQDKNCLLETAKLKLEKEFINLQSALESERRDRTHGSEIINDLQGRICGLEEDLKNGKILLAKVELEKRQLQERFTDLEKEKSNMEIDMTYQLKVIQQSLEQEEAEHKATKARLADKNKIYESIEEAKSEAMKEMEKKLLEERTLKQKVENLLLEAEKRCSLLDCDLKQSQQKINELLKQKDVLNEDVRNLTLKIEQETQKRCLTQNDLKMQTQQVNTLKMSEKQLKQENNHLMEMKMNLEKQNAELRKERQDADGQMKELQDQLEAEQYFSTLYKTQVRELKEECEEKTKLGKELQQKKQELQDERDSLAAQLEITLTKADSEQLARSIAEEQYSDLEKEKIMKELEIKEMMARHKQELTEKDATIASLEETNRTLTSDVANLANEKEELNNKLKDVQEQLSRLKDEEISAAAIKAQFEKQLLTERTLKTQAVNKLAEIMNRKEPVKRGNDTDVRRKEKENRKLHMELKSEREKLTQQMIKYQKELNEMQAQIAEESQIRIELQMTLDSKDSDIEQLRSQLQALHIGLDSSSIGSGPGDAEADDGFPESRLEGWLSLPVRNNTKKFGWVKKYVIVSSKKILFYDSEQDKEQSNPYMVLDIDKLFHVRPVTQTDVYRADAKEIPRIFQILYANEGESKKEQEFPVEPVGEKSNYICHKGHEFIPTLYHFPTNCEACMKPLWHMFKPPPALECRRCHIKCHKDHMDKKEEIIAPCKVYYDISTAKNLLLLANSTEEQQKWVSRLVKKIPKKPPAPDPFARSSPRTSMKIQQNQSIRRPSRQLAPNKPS
T1 sequence (O94804 whole entry): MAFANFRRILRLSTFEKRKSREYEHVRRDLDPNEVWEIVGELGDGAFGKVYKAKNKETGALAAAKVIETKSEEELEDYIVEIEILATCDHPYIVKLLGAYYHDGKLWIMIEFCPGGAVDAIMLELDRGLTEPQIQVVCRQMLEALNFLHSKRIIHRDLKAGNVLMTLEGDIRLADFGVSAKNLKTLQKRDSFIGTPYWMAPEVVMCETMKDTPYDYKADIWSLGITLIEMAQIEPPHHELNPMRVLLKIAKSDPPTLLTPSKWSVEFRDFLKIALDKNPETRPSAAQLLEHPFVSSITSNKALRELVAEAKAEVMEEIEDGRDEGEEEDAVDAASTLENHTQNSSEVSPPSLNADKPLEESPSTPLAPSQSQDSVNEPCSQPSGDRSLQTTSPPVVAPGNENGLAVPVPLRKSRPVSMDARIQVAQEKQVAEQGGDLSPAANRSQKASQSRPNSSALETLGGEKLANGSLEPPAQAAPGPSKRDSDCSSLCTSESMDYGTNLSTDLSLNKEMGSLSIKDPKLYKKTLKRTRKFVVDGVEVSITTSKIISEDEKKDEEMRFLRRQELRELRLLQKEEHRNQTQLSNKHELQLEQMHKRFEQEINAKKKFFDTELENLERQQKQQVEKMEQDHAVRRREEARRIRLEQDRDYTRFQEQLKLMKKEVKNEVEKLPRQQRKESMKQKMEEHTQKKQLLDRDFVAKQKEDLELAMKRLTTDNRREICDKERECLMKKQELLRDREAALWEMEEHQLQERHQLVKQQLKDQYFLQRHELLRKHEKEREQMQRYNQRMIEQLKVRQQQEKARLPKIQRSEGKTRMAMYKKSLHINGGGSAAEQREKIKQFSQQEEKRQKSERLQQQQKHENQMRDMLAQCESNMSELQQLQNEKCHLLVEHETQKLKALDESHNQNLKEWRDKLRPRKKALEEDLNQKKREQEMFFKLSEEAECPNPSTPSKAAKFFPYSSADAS
Chain of MNK1 (Q9BUB5 whole entry): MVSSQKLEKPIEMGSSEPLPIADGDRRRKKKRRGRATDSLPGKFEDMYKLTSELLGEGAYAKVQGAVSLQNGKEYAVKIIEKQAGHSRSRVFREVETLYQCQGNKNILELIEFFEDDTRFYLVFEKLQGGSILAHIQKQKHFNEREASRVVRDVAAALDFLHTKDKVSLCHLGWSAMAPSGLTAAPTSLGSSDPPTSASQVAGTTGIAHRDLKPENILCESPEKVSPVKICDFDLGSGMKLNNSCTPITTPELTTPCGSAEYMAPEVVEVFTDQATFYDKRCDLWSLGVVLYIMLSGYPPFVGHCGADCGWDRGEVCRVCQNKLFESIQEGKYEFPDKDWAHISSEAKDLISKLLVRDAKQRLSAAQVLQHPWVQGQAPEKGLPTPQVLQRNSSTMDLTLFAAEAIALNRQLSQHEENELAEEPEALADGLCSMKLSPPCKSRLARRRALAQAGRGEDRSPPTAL

On to `Fc1ccccc1CNCc1ccc(-c2ccnc3[nH]ccc23)cc1` [OXA-06], for which the figures for the “Compound / OXA-06” value at STK10 [1], at ROCK2 [2] and at ROCK1 [7] were 58, 95 and 94, respectively. The inhibition at 0.2 µM at PKCtheta [3] was 12%; on IKKbeta, 56%; on PKCepsilon it was 26%; at MNK1 it was 16%; at ROCK1 [4], 94%; on PKCbeta1 it was -3%. For the same compound, the inhibition at 0.2 µM at RSK1 worked out at 6%; on PKCdelta, 36%; on RSK3, 10%; at ROCK2 [5], 95%; at PKA it was 98%; at MST1, 19%. Moreover, the inhibition at 0.2 µM on STK10 [6] worked out at 58%; at RSK2, 17%; on PRKX it was 56%; on PKG, 72%; at ARK5, 56%; on PKG1b it was 73%.
With `C[C@@H](N)[C@H]1CC[C@H](C(=O)Nc2ccncc2)CC1` [Y-27632], the inhibition at 10 µM at PKCtheta [8] came out at 82%; on STK10 [9] it was 87%; at ROCK1 [10], 94%; at ROCK2 [11], 95%; on IKKbeta it was 82%; at MNK1 it was 78%. Besides, the inhibition at 10 µM was 52% at PKCbeta1; 51% on RSK1; 55% on PKCdelta; 82% at RSK3; 29% on PKA; 59% at MST1. Moreover, the inhibition at 10 µM on PRKX worked out at 78%; at PKG it was 64%; on ARK5, 1%; at PKG1b, 68%.
